This passage reports pKa results from patent US5665515A, “Method for obtaining a printing plate according to the silver salt diffusion transfer process” (Agfa-Gevaert N.V., priority 1994, dated 1997).

This series in a line: pKa of the mercapto group by titration with hydrochloric acid in water. As to conditions: 0.002 mole/liter, dissolved at pH 11, titrated with 0.1 mole/liter hydrochloric acid. Type of series: physicochemical. Here is the method:
The pKa of the mercapto-compounds in connection with the present invention were determined according to the method described in "Ionization Constants of Acids and Bases--A Laboratory Manual" written by Adrien Albert and E. P. Serjeant and Edited by John Wiley & Sons (New York) page 110-112 (1962).
In these particular cases, the compounds were dissolved in water at pH 11. The concentration of the compounds was 0.002 mole/liter and the mixture was then titrated with a solution of hydrochloric acid (0.1 mole/liter).

As usually defined, the pKa is the pH at which an ionisable group is half protonated. High values mean a weaker acid or stronger base, low ones a stronger acid or weaker base. On to `CCCCn1nnnc1S` [compound 5], for which the pKa stood at 3.2.
The result for `CCCCCCCCn1nnnc1S` [compound 4] reads 3.4; that for `Sc1nnnn1-c1ccccc1` [compound 6], 3.1; that for `CCCCN(CCCC)C(=O)Cn1nnnc1S` [compound 2], 3.3.
